Results taken from patent US20120121670A1, “POLYARGININE NANOCAPSULES” (priority 2009, published 2012).

Tested on: NCI-H460 lung cancer cell line
Test: Cell proliferation inhibition
Type: cell-based
Details: Homo sapiens, docetaxel concentration, Graph Pad Prism 2.1, read-out: IC50 (concentration at which the proliferation of 50% of the population is inhibited)
Procedure: The % of cell viability at different concentrations of DCX is depicted for polyarginine NC, DCX in solution, polyarginine/DCX NC.
In order to evaluate the potential of the PArg nanocapsules encapsulating the docetaxel cytostatic molecule to inhibit the cell proliferation of the NCI-H460 lung cancer cell line the nanocapsules were prepared according to the method described in Example 3. The results shown in FIG. 9 show the great proliferation inhibition capacity of the nanocapsules encapsulating docetaxel in comparison with the free molecule. […] The IC50 values, concentration at which the proliferation of 50% of the population is inhibited, were calculated by means of the Graph Pad Prism 2.1 program (Graph Pad Software).

- IC50: 13.3 nM
SMILES: CC(=O)O[C@@]12CO[C@@H]1C[C@H](O)[C@@]1(C)C(=O)[C@H](O)C3=C(C)[C@@H](OC(=O)[C@H](O)[C@@H](NC(=O)OC(C)(C)C)c4ccccc4)C[C@@](O)([C@@H](OC(=O)c4ccccc4)[C@H]21)C3(C)C [docetaxel solution, docetaxel]
